Measured values from patent US20170334891A1, “ENHANCER OF ZESTE HOMOLOG 2 INHIBITORS” (GLAXOSMITHKLINE INTELLECTUAL PROPERTY (NO.2) LIMITED, priority 2014, published 2017).

Target: T1, EZH2 within the PRC2 complex (Homo sapiens, UniProt Q15910)
T1 construct: FLAG; made in house; host or cells: Sf9 cells
Test: EZH2 methyltransferase scintillation proximity assay (SPA)
Type: biochemical
Settings: Human PRC2 5 member complex (FLAG-EZH2, EED, SUZ12, RbAp48, AEBP2), 1 nM enzyme, biotinylated histone H3K27 peptide, 3H-SAM, 60 min at room temperature
Experimental: Compounds contained herein were evaluated for their ability to inhibit the methyltransferase activity of EZH2 within the PRC2 complex. Human PRC2 complex was prepared by co-expressing each of the 5 member proteins (FLAG-EZH2, EED, SUZ12, RbAp48, AEBP2) in Sf9 cells followed by co-purification. Enzyme activity was measured in a scintillation proximity assay (SPA) where a tritiated methyl group is transferred from 3H-SAM to a lysine residue on a biotinylated, unmethylated peptide substrate derived from histone H3. The peptides were captured on streptavidin-coated SPA beads and the resulting signal was read on a ViewLux plate reader.
• 1. Prepare 10 mM stock of compounds from solid in 100% DMSO. • 2. Set up an 11-point serial dilution (1:4 dilution, top concentration 10 mM) in 100% DMSO for each test compound in a 384 well plate leaving columns 6 and 18 for DMSO controls. • 3. Dispense 10 nL of compound from the dilution plate into reaction plates (Corning, 384-well polystyrene NBS, Cat#3673).
Prepare the following solutions: • 1. 1× Base Buffer, 50 mM Tris-HCl, pH 8, 2 mM MgCl2: Per 1 L of base buffer, combine 1 M Tris-HCl, pH 8 (50 mL), 1 M MgCl2 (2 mL), and distilled water (948 mL). • 2. 1× Assay Buffer: Per 10 mL of 1× Assay Buffer, combine 1× Base Buffer (9.96 mL), 1 M DTT (40 uL), and 10% Tween-20 (1 uL) to provide a final concentration of 50 mM Tris-HCl, pH 8, 2 mM MgCl2, 4 mM DTT, 0.001% Tween-20. • 3. 2× Enzyme Solution: Per 10 mL of 2× Enzyme Solution, combine 1× Assay Buffer (9.99 mL) and 3.24 uM EZH2 5 member complex (6.17 uL) to provide a final enzyme concentration of 1 nM. • 4. SPA Bead Solution: Per 1 mL of SPA Bead Solution, combine Streptavidin coated SPA beads (PerkinElmer, Cat# RPNQ0261, 40 mg) and 1× Assay Buffer (1 mL) to provide a working concentration of 40 mg/mL. • 5. 2× Substrate Solution: Per 10 mL of 2× Substrate Solution, combine 40 mg/mL SPA Bead Solution (375 uL), 1 mM biotinylated histone H3K27 peptide (200 uL), 12.5 uM 3H-SAM (240 uL; 1 mCi/mL), 1 mM cold SAM (57 uL), and 1× Assay Buffer (9.13 mL) to provide a final concentration of 0.75 mg/mL SPA Bead Solution, 10 uM biotinylated histone H3K27 peptide, 0.15 uM 3H-SAM (˜12 uCi/mL 3H-SAM), and 2.85 uM cold SAM. • 6. 2.67× Quench Solution: Per 10 mL of 2.67× Quench Solution, combine 1× Assay Buffer (9.73 mL) and 10 mM cold SAM (267 uL) to provide a final concentration of 100 uM cold SAM.
• 1. Stamp 10 nL/well of 1000× Compound to test wells (as noted above). • 2. Stamp 10 nL/well of 100% DMSO to columns 6 & 18 (high and low controls, respectively).
• 1. Dispense 5 uL/well of 1× Assay Buffer to column 18 (low control reactions). • 2. Dispense 5 uL/well of 2× Substrate Solution to columns 1-24 (note: substrate solution should be mixed to ensure homogeneous bead suspension before dispensing into matrix reservoir). • 3. Dispense 5 uL/well of 2× Enzyme Solution to columns 1-17, 19-24. • 4. Incubate the reaction for 60 min at room temperature.
• 1. Dispense 6 uL/well of the 2.67× Quench Solution to columns 1-24. • 2. Seal assay plates and spin for ˜1 min at 500 rpm. • 3. Dark adapt plates in the ViewLux instrument for 15-60 min.
• 1. Read the assay plates on the Viewlux Plate Reader utilizing the 613 nm emission filter or clear filter (300 s exposure). Reagent addition can be done manually or with automated liquid handler.
Percent inhibition was calculated relative to the DMSO control for each compound concentration and the resulting values were fit using standard IC50 fitting parameters within the ABASE data fitting software package.
The IC50 values of <10 nM indicate that the activity of compound was approaching the limit of detection in the assay. Repeating the assay run(s) may result in somewhat different IC50 values.

T1 sequence (Q15910 whole entry): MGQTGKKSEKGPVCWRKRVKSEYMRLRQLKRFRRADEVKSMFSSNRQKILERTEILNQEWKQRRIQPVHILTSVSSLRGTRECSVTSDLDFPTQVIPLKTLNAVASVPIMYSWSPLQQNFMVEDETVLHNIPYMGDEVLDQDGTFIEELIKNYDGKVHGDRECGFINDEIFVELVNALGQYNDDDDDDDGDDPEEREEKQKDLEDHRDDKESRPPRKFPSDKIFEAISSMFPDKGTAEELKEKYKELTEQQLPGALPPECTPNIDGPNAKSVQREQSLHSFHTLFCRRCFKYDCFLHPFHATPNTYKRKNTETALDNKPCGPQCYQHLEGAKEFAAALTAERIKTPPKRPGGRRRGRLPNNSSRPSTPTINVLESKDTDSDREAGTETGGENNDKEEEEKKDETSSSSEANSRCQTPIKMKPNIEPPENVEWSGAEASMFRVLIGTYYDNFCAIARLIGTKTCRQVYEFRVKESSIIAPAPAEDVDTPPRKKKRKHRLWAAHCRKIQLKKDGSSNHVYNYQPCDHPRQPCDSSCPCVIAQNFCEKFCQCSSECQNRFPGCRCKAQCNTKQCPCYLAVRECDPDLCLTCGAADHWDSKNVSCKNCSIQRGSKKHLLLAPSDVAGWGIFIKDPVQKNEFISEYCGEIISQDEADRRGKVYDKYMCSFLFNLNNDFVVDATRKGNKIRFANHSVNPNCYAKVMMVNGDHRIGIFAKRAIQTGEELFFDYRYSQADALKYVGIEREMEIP
T1 sequence (O75530 whole entry partner): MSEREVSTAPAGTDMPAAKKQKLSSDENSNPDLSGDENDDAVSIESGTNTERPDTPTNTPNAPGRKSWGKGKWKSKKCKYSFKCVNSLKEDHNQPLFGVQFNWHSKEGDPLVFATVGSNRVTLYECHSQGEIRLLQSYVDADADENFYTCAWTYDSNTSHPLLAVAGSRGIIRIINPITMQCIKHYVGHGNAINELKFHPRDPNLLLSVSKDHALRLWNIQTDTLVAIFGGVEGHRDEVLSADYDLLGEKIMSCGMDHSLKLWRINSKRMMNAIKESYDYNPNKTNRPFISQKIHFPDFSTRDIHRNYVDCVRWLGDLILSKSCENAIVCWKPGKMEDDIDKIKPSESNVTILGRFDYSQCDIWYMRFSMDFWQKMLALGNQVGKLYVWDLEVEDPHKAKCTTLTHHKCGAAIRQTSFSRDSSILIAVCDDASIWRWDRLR
T1 sequence (Q15022 whole entry partner): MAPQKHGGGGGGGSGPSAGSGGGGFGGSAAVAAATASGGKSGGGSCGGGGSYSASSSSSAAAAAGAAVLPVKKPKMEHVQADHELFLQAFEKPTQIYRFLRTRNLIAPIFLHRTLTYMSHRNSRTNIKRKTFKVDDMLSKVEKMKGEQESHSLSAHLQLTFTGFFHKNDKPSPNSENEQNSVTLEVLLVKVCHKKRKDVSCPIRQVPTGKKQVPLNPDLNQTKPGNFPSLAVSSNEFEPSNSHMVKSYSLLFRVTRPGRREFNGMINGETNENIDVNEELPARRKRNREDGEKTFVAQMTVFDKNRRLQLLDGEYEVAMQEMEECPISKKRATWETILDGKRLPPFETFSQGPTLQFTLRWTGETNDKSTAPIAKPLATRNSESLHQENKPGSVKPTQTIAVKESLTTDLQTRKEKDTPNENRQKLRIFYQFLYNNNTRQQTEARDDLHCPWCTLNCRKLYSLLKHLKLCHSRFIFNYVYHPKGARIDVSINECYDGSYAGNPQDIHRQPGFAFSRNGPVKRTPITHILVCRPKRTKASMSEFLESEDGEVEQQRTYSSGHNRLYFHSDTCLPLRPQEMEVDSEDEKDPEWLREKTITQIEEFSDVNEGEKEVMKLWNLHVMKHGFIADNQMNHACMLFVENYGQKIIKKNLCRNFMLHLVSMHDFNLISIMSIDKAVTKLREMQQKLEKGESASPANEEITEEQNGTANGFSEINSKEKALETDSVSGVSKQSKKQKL
T1 sequence (Q09028 whole entry partner): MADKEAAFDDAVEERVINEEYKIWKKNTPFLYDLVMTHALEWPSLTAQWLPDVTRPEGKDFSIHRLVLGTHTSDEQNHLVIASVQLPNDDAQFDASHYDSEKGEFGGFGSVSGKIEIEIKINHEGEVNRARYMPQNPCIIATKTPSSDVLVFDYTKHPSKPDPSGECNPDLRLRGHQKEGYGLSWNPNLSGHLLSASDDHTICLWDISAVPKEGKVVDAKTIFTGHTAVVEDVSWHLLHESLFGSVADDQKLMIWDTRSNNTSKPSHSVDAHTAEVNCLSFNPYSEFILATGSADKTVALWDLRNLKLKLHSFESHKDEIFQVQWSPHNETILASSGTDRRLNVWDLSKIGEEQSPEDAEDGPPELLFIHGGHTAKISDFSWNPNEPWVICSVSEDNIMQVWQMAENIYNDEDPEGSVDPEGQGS
T1 sequence (Q6ZN18 whole entry partner): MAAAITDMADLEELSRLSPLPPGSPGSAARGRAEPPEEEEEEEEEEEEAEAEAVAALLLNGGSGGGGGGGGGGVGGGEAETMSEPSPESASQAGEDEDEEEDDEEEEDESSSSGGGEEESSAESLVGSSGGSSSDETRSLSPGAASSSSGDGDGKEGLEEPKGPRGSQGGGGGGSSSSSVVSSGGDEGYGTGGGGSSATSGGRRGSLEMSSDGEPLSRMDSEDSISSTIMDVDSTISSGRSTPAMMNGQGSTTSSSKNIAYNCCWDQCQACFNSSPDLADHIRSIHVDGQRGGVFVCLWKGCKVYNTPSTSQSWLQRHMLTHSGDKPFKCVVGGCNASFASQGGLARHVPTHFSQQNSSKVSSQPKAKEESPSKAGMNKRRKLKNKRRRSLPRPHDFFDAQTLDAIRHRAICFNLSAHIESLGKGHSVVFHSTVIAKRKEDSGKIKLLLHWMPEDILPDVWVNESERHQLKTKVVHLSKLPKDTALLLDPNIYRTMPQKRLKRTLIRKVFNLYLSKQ

Row | SMILES | IC50 [nM]
1 | CCC(=C1CCN(CC(C)(F)F)CC1)c1scc(C(=O)NCc2c(C)cc(C)[nH]c2=O)c1C [Example 1, 5-(1-(1-(2,2-Difluoropropyl)piperidin-4-ylidene)propyl)-N-((4,6-dimethyl-2-oxo-1,2-dihydropyridin-3-yl)methyl)-4-methylthiophene-3-carboxamide] | 16
2 | CCC(=C1CCN(c2ncccn2)CC1)c1scc(C(=O)NCc2c(C)cc(C)[nH]c2=O)c1C [Example 13, N-((4,6-Dimethyl-2-oxo-1,2-dihydropyridin-3-yl)methyl)-4-methyl-5-(1-(1-(pyrimidin-2-yl)piperidin-4-ylidene)propyl)thiophene-3-carboxamide] | 13
3 | CCC(=C1CCN(N(C)C)CC1)c1scc(C(=O)NCc2c(C)cc(C)[nH]c2=O)c1C [Example 7, N-((4,6-Dimethyl-2-oxo-1,2-dihydropyridin-3-yl)methyl)-5-(1-(1-(dimethylamino)piperidin-4-ylidene)propyl)-4-methylthiophene-3-carboxamide] | 20
4 | CC[C@@H](c1scc(C(=O)NCc2c(C)cc(C)[nH]c2=O)c1C)C1CCN(CC(C)(F)F)CC1 [Example 4, (R)-5-(1-(1-(2,2-Difluoropropyl)piperidin-4-yl)propyl)-N-((4,6-dimethyl-2-oxo-1,2-dihydropyridin-3-yl)methyl)-4-methylthiophene-3-carboxamide] | 20
5 | CCC(=C1CCN(CC(C)(C)F)CC1)c1scc(C(=O)NCc2c(C)cc(C)[nH]c2=O)c1C [Example 2, N-((4,6-Dimethyl-2-oxo-1,2-dihydropyridin-3-yl)methyl)-5-(1-(1-(2-fluoro-2-methylpropyl)piperidin-4-ylidene)propyl)-4-methylthiophene-3-carboxamide] | ≤ 10
6 | CCC(=C1CCN(O)CC1)c1scc(C(=O)NCc2c(C)cc(C)[nH]c2=O)c1C [Example 8, N-((4,6-Dimethyl-2-oxo-1,2-dihydropyridin-3-yl)methyl)-5-(1-(1-hydroxypiperidin-4-ylidene)propyl)-4-methylthiophene-3-carboxamide] | 16
7 | CCC(c1scc(C(=O)NCc2c(C)cc(C)[nH]c2=O)c1C)C1CCN(CC(C)(C)F)CC1 (racemic) [Example 6, N-((4,6-Dimethyl-2-oxo-1,2-dihydropyridin-3-yl)methyl)-5-(1-(1-(2-fluoro-2-methylpropyl)piperidin-4-yl)propyl)-4-methylthiophene-3-carboxamide] | 50
8 | CCC(c1sc2c(c1C)C(=O)N(Cc1c(C)cc(C)[nH]c1=O)CC2)N1CCC(N(C)C)CC1 (centres unmarked) [Example 9] | 50
9 | CCC(=C1CCN(CC(F)(F)F)CC1)c1scc(C(=O)NCc2c(C)cc(C)[nH]c2=O)c1C [Example 3, N-((4,6-Dimethyl-2-oxo-1,2-dihydropyridin-3-yl)methyl)-4-methyl-5-(1-(1-(2,2,2-trifluoroethyl)piperidin-4-ylidene)propyl)thiophene-3-carboxamide] | ≤ 10
10 | CCC(=C1CCC(O)CC1)c1scc(C(=O)NCc2c(C)cc(C)[nH]c2=O)c1C (centres unmarked) [Example 10, N-((4,6-Dimethyl-2-oxo-1,2-dihydropyridin-3-yl)methyl)-5-(1-(4-hydroxycyclohexylidene)propyl)-4-methylthiophene-3-carboxamide] | ≤ 10
11 | CC[C@H](c1scc(C(=O)NCc2c(C)cc(C)[nH]c2=O)c1C)C1CCN(CC(C)(F)F)CC1 [Example 5, (S)-5-(1-(1-(2,2-Difluoropropyl)piperidin-4-yl)propyl)-N-((4,6-dimethyl-2-oxo-1,2-dihydropyridin-3-yl)methyl)-4-methylthiophene-3-carboxamide] | 501

Second part, the molecule after the results:

Row | IC50 [nM] | SMILES
12 | 40 | CCC(c1scc(C(=O)NCc2c(C)cc(C)[nH]c2=O)c1C)C1CCN(CC(F)F)CC1 (racemic) [Example 14, 5-(1-(1-(2,2-Difluoroethyl)piperidin-4-yl)propyl)-N-((4,6-dimethyl-2-oxo-1,2-dihydropyridin-3-yl)methyl)-4-methylthiophene-3-carboxamide]
13 | 100 | CCC(c1sc2c(c1C)C(=O)N(Cc1c(C)cc(C)[nH]c1=O)CC2)C1CCN(CC(C)F)CC1 (centres unmarked) [Example 17, 5-((4,6-Dimethyl-2-oxo-1,2-dihydropyridin-3-yl)methyl)-2-(1-(1-(2-fluoropropyl)piperidin-4-yl)propyl)-3-methyl-6,7-dihydrothieno[3,2-c]pyridin-4(5H)-one]
14 | ≤ 10 | Cc1cc(C)c(CNC(=O)c2csc([C@H](C)C3CCN(CC(F)F)CC3)c2C)c(=O)[nH]1 [Example 22, (R)-5-(1-(1-(2,2-Difluoroethyl)piperidin-4-yl)ethyl)-N-((4,6-dimethyl-2-oxo-1,2-dihydropyridin-3-yl)methyl)-4-methylthiophene-3-carboxamide]
15 | ≤ 10 | CCC(=C1CCN(/C(=N/C#N)NC)CC1)c1scc(C(=O)NCc2c(C)cc(C)[nH]c2=O)c1C [Example 15, 5-(1-(1-(N′-Cyano-N-methylcarbamimidoyl)piperidin-4-ylidene)propyl)-N-((4,6-dimethyl-2-oxo-1,2-dihydropyridin-3-yl)methyl)-4-methylthiophene-3-carboxamide]
16 | ≤ 10 | CC[C@@H](c1scc(C(=O)NCc2c(C)cc(C)[nH]c2=O)c1C)C1CCN(CC(F)F)CC1 [Example 21, (R)-5-(1-(1-(2,2-Difluoroethyl)piperidin-4-yl)propyl)-N-((4,6-dimethyl-2-oxo-1,2-dihydropyridin-3-yl)methyl)-4-methylthiophene-3-carboxamide]
17 | ≤ 10 | CCC(c1sc2c(c1C)C(=O)N(Cc1c(C)cc(C)[nH]c1=O)CC2)C1CCN(/C(=N\C#N)NC)CC1 (centres unmarked) [Example 18, N′-Cyano-4-(1-(5-((4,6-dimethyl-2-oxo-1,2-dihydropyridin-3-yl)methyl)-3-methyl-4-oxo-4,5,6,7-tetrahydrothieno[3,2-c]pyridin-2-yl)propyl)-N-methylpiperidine-1-carboximidamide]
18 | 100 | CCC(c1sc2c(c1C)C(=O)N(Cc1c(C)cc(C)[nH]c1=O)CC2)C1CCN(CC(C)(F)F)CC1 (centres unmarked) [Example 16, 2-(1-(1-(2,2-Difluoropropyl)piperidin-4-yl)propyl)-5-((4,6-dimethyl-2-oxo-1,2-dihydropyridin-3-yl)methyl)-3-methyl-6,7-dihydrothieno[3,2-c]pyridin-4(5H)-one]
19 | ≤ 10 | CCC(=C1CCN(CC(F)F)CC1)c1scc(C(=O)NCc2c(C)cc(C)[nH]c2=O)c1C [Example 20, 5-(1-(1-(2,2-Difluoroethyl)piperidin-4-ylidene)propyl)-N-((4,6-dimethyl-2-oxo-1,2-dihydropyridin-3-yl)methyl)-4-methylthiophene-3-carboxamide]
20 | ≤ 10 | Cc1cc(C)c(CNC(=O)c2csc([C@H](C)C3CCN(CC(C)(F)F)CC3)c2C)c(=O)[nH]1 [Example 23, (R)-5-(1-(1-(2,2-Difluoropropyl)piperidin-4-yl)ethyl)-N-((4,6-dimethyl-2-oxo-1,2-dihydropyridin-3-yl)methyl)-4-methylthiophene-3-carboxamide]
